Assay results published in patent US5100785A, “Polycyclic ether antibiotic” (Pfizer Inc., priority 1984, dated 1992).

What was measured:
[1] = system: Serratia marcescens; experiment: in vitro antibacterial activity (MIC), Serratia marcescens; format: cell-based; conditions: gram-negative; 24 hours
Method: (§1) In Table I, below, the results of in vitro tests are summarized. For this test each organism is innoculated in a series of test tubes containing nutrient medium and varying concentrations of Antibiotic UK-58,852 to determine the minimal concentration of the compound in mcg./ml. which inhibits the growth of the organism over a period of 24 hours (MIC).

[2] = system: Streptococcus pyogenes; experiment: in vitro antibacterial activity (MIC), Streptococcus pyogenes; format: cell-based; conditions: strain 020303; 24 hours
[3] = system: Actinomyces pyogenes; experiment: in vitro antibacterial activity (MIC), Actinomyces pyogenes; format: cell-based; conditions: strain 14D011; 24 hours
[4] = system: Klebsiella pneumoniae; experiment: in vitro antibacterial activity (MIC), Klebsiella pneumoniae; format: cell-based; conditions: gram-negative; 24 hours
Method: as §1

[5] = system: Bacteroides fragilis; experiment: in vitro antibacterial activity (MIC), Bacteroides fragilis; format: cell-based; conditions: strain 78C024; 24 hours
[6] = system: Fusobacterium necrophorum; experiment: in vitro antibacterial activity (MIC), Fusobacterium necrophorum; format: cell-based; conditions: strain 84C004; 24 hours
[7] = system: Treponema hyodysenteriae; experiment: in vitro antibacterial activity (MIC), Treponema hyodysenteriae; format: cell-based; conditions: strain 94A007; 24 hours
[8] = system: Streptococcus faecalis; experiment: in vitro antibacterial activity (MIC), Streptococcus faecalis; format: cell-based; conditions: strain 02A006; 24 hours
[9] = system: Enterobacteriaceae aerogenes; experiment: in vitro antibacterial activity (MIC), Enterobacteriaceae aerogenes; format: cell-based; conditions: gram-negative; 24 hours
Method: as §1

[10] = system: Pasteurella multocida; experiment: in vitro antibacterial activity (MIC), Pasteurella multocida; format: cell-based; conditions: strain 59A006; 24 hours
[11] = system: Actinobacillus pleuropneumoniae; experiment: in vitro antibacterial activity (MIC), Actinobacillus pleuropneumoniae; format: cell-based; conditions: 24 hours
[12] = system: Escherischia coli; experiment: in vitro antibacterial activity (MIC), Escherischia coli; format: cell-based; conditions: gram-negative; 24 hours
Method: as §1

[13] = system: Pseudomonas aeruginosa; experiment: in vitro antibacterial activity (MIC), Pseudomonas aeruginosa; format: cell-based; conditions: gram-negative; 24 hours
Method: as §1

[14] = system: Staphylococcus aureus; experiment: in vitro antibacterial activity (MIC), Staphylococcus aureus; format: cell-based; conditions: 24 hours
Method: as §1

[15] = system: Eimeria acervulina; experiment: in vivo anticoccidial activity in chickens, Eimeria acervulina; conditions: for AVERAGE DEGREE OF INFECTION / WEIGHT GAIN (PERCENT): chickens, after five days
[16] = system: rumen fluid; experiment: in vitro rumen technique, propionic acid production; conditions: 39° C., about 16 hours; for increase in propionic acid production: 10 mcg/ml., separate experiment with CP-70,228; for increase in the production of propionic acid over control: 10 micrograms per milliliter, experiment with UK-58,852
[17] = system: Eimeria tenella; experiment: in vivo anticoccidial activity in chickens, Eimeria tenella; conditions: for AVERAGE DEGREE OF INFECTION / WEIGHT GAIN (PERCENT): chickens, after six days
[18] = system: Clostridium perfringens; format: cell-based; conditions: strain 10A009; 24 hours
[19] = system: E. brunetti; experiment: in vivo anticoccidial activity in chickens, E. brunetti; conditions: diet of chickens, 25 to 150 ppm
[20] = system: E. necatrix; experiment: in vivo anticoccidial activity in chickens, E. necatrix; conditions: diet of chickens, 25 to 150 ppm
[21] = system: E. maxima; experiment: in vivo anticoccidial activity in chickens, E. maxima; conditions: diet of chickens, 25 to 150 ppm
[22] = diet of chickens, 25 to 150 ppm

COC1CCC(OC2CC(C3OC(C)(OC)C(C)CC3C)OC2C2(C)CCC(C3(C)CCC4(CC(O)C(C)C(C(C)C5OC(O)(CC(=O)[O-])C(C)C(OC6CCC(OC)C(C)O6)C5OC)O4)O3)O2)OC1C.[Na+] (centres unmarked) [CP-70,228 Sodium Salt]
MIC [1]: > 50 µg/mL
MIC [2]: 0.10 µg/mL
MIC [3]: 0.34 µg/mL
MIC [4]: > 50 µg/mL
MIC [5]: 12.5 µg/mL
MIC [6]: > 100 µg/mL
MIC [7]: 1.58 µg/mL
MIC [8]: 50 µg/mL
MIC [9]: > 50 µg/mL
MIC [10]: > 100 µg/mL
MIC ([11]; strain 54B004): > 100 µg/mL
MIC [12]: > 50 µg/mL
MIC [13]: > 50 µg/mL
MIC ([14]; strain 01A005): 3.12 µg/mL
MIC ([14]; strain 01A052): 3.12 µg/mL
MIC ([14]; strain 01A110): 3.12 µg/mL
MIC ([14]; strain 01A400): 6.25 µg/mL

COC1CCC(OC2CC(C3OC(C)(OC)C(C)CC3C)OC2C2(C)CCC(C3(C)CCC4(CC(O)C(C)C(C(C)C5OC(O)(CC(=O)O)C(C)C(OC6CCC(OC)C(C)O6)C5OC)O4)O3)O2)OC1C (centres unmarked) [CP-70,228]
AVERAGE DEGREE OF INFECTION ([15]; 25 ppm in feed): 1.2
WEIGHT GAIN (PERCENT) ([15]; 25 ppm in feed): 40%
AVERAGE DEGREE OF INFECTION ([15]; 50 ppm in feed): 0.0
WEIGHT GAIN (PERCENT) ([15]; 50 ppm in feed): 70%
AVERAGE DEGREE OF INFECTION ([15]; 75 ppm in feed): 0.0
WEIGHT GAIN (PERCENT) ([15]; 75 ppm in feed): 100%
AVERAGE DEGREE OF INFECTION ([15]; 100 ppm in feed): 0.0
WEIGHT GAIN (PERCENT) ([15]; 100 ppm in feed): 100%
increase in propionic acid production [16]: about 30%
AVERAGE DEGREE OF INFECTION ([17]; 25 ppm in feed): 2.7
WEIGHT GAIN (PERCENT) ([17]; 25 ppm in feed): 80%
AVERAGE DEGREE OF INFECTION ([17]; 50 ppm in feed): 1.3
WEIGHT GAIN (PERCENT) ([17]; 50 ppm in feed): 103%
AVERAGE DEGREE OF INFECTION ([17]; 75 ppm in feed): 0.3
WEIGHT GAIN (PERCENT) ([17]; 75 ppm in feed): 63%
AVERAGE DEGREE OF INFECTION ([17]; 100 ppm in feed): 0.0
WEIGHT GAIN (PERCENT) ([17]; 100 ppm in feed): 95%

COC1CCC(OC2CC(C3OC(C)(OC)C(C)CC3C)OC2C2(C)CCC(C3(C)CCC4(CC(OC)C(C)C(C(C)C5OC(O)(CC(=O)[O-])C(C)C(OC6CCC(OC)C(C)O6)C5OC)O4)O3)O2)OC1C.[Na+] (centres unmarked) [CP-70,828 Sodium Salt]
MIC [1]: > 50 µg/mL
MIC [2]: 3.12 µg/mL
MIC [4]: > 50 µg/mL
MIC [8]: > 50 µg/mL
MIC [9]: > 50 µg/mL
MIC [12]: > 50 µg/mL
MIC [13]: > 50 µg/mL
MIC ([14]; strain 01A005): 25 µg/mL
MIC ([14]; strain 01A052): 25 µg/mL
MIC ([14]; strain 01A110): 25 µg/mL
MIC ([14]; strain 01A400): 25 µg/mL

COC1CCC(OC2CC(C3OC(C)(O)C(C)CC3C)OC2C2(C)CCC(C3(C)CCC4(CC(O)C(C)C(C(C)C5OC(O)(CC(=O)[O-])C(C)C(OC6CCC(OC)C(C)O6)C5OC)O4)O3)O2)OC1C.[Na+] (centres unmarked) [UK-58,852 (sodium salt)]
MIC [1]: > 50 µg/mL
MIC [2]: 0.05 µg/mL
MIC [3]: 0.08 µg/mL
MIC [4]: > 50 µg/mL
MIC [5]: 0.10 µg/mL
MIC [6]: > 25 µg/mL
MIC [7]: 0.39 µg/mL
MIC [8]: > 50 µg/mL
MIC [9]: > 50 µg/mL
MIC [10]: > 200 µg/mL
MIC ([11]; strain 44B004): > 25 µg/mL
MIC [12]: > 50 µg/mL
MIC [18]: 0.79 µg/mL
MIC [13]: > 50 µg/mL
MIC ([14]; strain 01A005): 3.12 µg/mL
MIC ([14]; strain 01A052): 3.12 µg/mL
MIC ([14]; strain 01A110): 3.12 µg/mL
MIC ([14]; strain 01A400): 6.25 µg/mL

COC1CCC(OC2CC(C3OC(C)(O)C(C)CC3C)OC2C2(C)CCC(C3(C)CCC4(CC(O)C(C)C(C(C)C5OC(O)(CC(=O)O)C(C)C(OC6CCC(OC)C(C)O6)C5OC)O4)O3)O2)OC1C (centres unmarked) [UK-58,852]
AVERAGE DEGREE OF INFECTION ([15]; 25 ppm in feed): 0.0
WEIGHT GAIN (PERCENT) ([15]; 25 ppm in feed): 98%
AVERAGE DEGREE OF INFECTION ([15]; 50 ppm in feed): 0.0
WEIGHT GAIN (PERCENT) ([15]; 50 ppm in feed): 62%
AVERAGE DEGREE OF INFECTION ([15]; 75 ppm in feed): 0.0
WEIGHT GAIN (PERCENT) ([15]; 75 ppm in feed): 0%
AVERAGE DEGREE OF INFECTION ([15]; 100 ppm in feed): 0.0
WEIGHT GAIN (PERCENT) ([15]; 100 ppm in feed): 23%
AVERAGE DEGREE OF INFECTION ([15]; 125 ppm in feed): 0.0
WEIGHT GAIN (PERCENT) ([15]; 125 ppm in feed): 0%
AVERAGE DEGREE OF INFECTION ([15]; 150 ppm in feed): 0.0
WEIGHT GAIN (PERCENT) ([15]; 150 ppm in feed): 0%
controlling infections due to E. acervulina [15, 22]: effective
controlling infections due to E. brunetti [19]: effective
increase in the production of propionic acid over control [16]: about 93%
controlling infections due to E. necatrix [20]: effective
AVERAGE DEGREE OF INFECTION ([17]; 25 ppm in feed): 0.0
WEIGHT GAIN (PERCENT) ([17]; 25 ppm in feed): 93%
AVERAGE DEGREE OF INFECTION ([17]; 50 ppm in feed): 0.0
WEIGHT GAIN (PERCENT) ([17]; 50 ppm in feed): 45%
AVERAGE DEGREE OF INFECTION ([17]; 75 ppm in feed): 0.0
WEIGHT GAIN (PERCENT) ([17]; 75 ppm in feed): 28%
AVERAGE DEGREE OF INFECTION ([17]; 100 ppm in feed): 0.0
WEIGHT GAIN (PERCENT) ([17]; 100 ppm in feed): 8%
AVERAGE DEGREE OF INFECTION ([17]; 125 ppm in feed): 0.0
WEIGHT GAIN (PERCENT) ([17]; 125 ppm in feed): 4%
AVERAGE DEGREE OF INFECTION ([17]; 150 ppm in feed): 0.0
WEIGHT GAIN (PERCENT) ([17]; 150 ppm in feed): 0%
controlling infections due to Eimeria tenella [17, 22]: effective
controlling infections due to E. maxima [21]: effective

CC[C@@H](C(=O)[C@@H](C)[C@@H](O)[C@H](C)[C@@H]1O[C@@H]([C@@H](CC)C(=O)O)CC[C@@H]1C)[C@H]1O[C@]2(C=C[C@@H](O)[C@]3(CC[C@@](C)([C@H]4CC[C@](O)(CC)[C@H](C)O4)O3)O2)[C@H](C)C[C@@H]1C [salinomycin, reference compound]
increase in propionic acid production [16]: about 40%
increase in the production of propionic acid over control [16]: ~88%
